Tested on: HepG2 cell line
Assay: In vitro toxicity study on HepG2 cell line (resazurin, viability and IC50)
Format: cell-based, human
Details: resazurin; for Viability (%) at different lipid concentrations, mean: HepG2 cells, 48 h post-treatment, relative to ethanol vehicle controls; for IC50: Homo sapiens, lipid toxicity, HepG2, 48 h post-treatment, 6.25-800 μM, read-out: IC50 value, μM (on HepG2 cell)
Method: The synthesized lipids were tested in term of in vitro transfection efficacy and toxicity on HeLa cells. In order to perform the mentioned biological tests, appropriate LNPs had to be formulated from the synthesized lipids. The formulation technique was different in Method A and B. The particle size, polydispersity index (PDI) and zeta potential of resulting LNPs were determined by means of Dynamic Light Scattering technique (DLS). Prior to biological testing the encapsulation efficiency (EE) of the loaded LNPs was determined by using RiboGreen RNA assay. In case of Method A Luc mRNA while in case of Method B GFP mRNA was transfected into the cells. In parallel with the transfection experiments, toxicity of the investigated LNPs was determined, in case of Method A resazurin assay while in case of Method B MTT assay was used. Additionally, the toxicity of the lipids was investigated on HepG2 cells and IC50 values were determined.
HepG2 cell line (human hepatocellular carcinoma) were maintained in DMEM medium supplemented with 10% FBS. Cell toxicity measurements were carried out in 384-well microtiter plates with 1000 cells seeded in each well. Test measurements were carried out in triplicate, and control measurements in quadruplicate. After an overnight incubation, the cells were treated with an increasing concentration of the test compounds (6.25, 12.5, 25, 50, 100, 200, 400, 800 μM). […] 48 h post-treatment, following visual inspection under an inverted microscope, cell viability was measured by resazurin assay. Viability of treated cells was calculated relative to that of ethanol vehicle controls. Concentration response curves (CRCs) were obtained and corresponding IC50 values were calculated where applicable and are shown in Table 9.
Resazurin reagent (Sigma-Aldrich) was dissolved in PBS (pH 7.4) at 0.15 mg/ml concentration, 0.22 μm filtered and aliquoted at −20° C., 10 μl resazurin stock solution was added to wells. After 5 hours incubation at 37° C. under 5% CO2 fluorescence (530 nm excitation/580 nm emission) was recorded on a multimode microplate reader.

Row | Structure (SMILES) | Viability (%) at different lipid concentrations, mean (6.25 μM lipid) | Viability (%) at different lipid concentrations, mean (12.5 μM lipid) | Viability (%) at different lipid concentrations, mean (25 μM lipid) | Viability (%) at different lipid concentrations, mean (50 μM lipid) | Viability (%) at different lipid concentrations, mean (100 μM lipid) | Viability (%) at different lipid concentrations, mean (200 μM lipid) | Viability (%) at different lipid concentrations, mean (400 μM lipid) | Viability (%) at different lipid concentrations, mean (800 μM lipid) | IC50
1 | CCCCC/C=C\C/C=C\CCCCCCCCOC(CCCCCCC/C=C\C/C=C\CCCCC)O[Si](C)(C)OCCCCCCN(CCCO)CCCO (stereo not shown) [Example 61, (24Z,27Z)-14-((8Z,11Z)-heptadeca-8,11-dien-1-yl)-4-(3-hydroxypropyl)-12,12-dimethyl-11,13,15-trioxa-4-aza-12-silatritriaconta-24,27-dien-1-ol] | 100.6% | 110.1% | 116.5% | 106.3% | 54.4% | 14.9% | −0.5% | −1.4% | 102 µM
2 | CCCCC/C=C\C/C=C\CCCCCCCCOC(CCCCCCC/C=C\C/C=C\CCCCC)O[Si](C)(C)OCCCCCCN1CCCC1CO (stereo not shown) [Example 63, (1-((20Z,23Z)-10-((8Z,11Z)-heptadeca-8,11-dien-1-yl)-8,8-dimethyl-7,9,11-trioxa-8-silanonacosa-20,23-dien-1-yl)pyrrolidin-2-yl)methanol] | 99.3% | 96.4% | 96.6% | 98.3% | 94.8% | 91.6% | 85.3% | 74.5% | > 800 µM
3 | CCCCC/C=C\C/C=C\CCCCCCCCOC(CCCCCCC/C=C\C/C=C\CCCCC)O[Si](C)(C)OCCCCCCN1CCC(CO)CC1 (stereo not shown) [Example 65, (1-((20Z,23Z)-10-((8Z,11Z)-heptadeca-8,11-dien-1-yl)-8,8-dimethyl-7,9,11-trioxa-8-silanonacosa-20,23-dien-1-yl)piperidin-4-yl)methanol] | – | – | – | – | – | – | – | – | 742 µM
4 | CCCCCCCCO[Si](C)(C)O[Si](C)(C)OC(CCCCCCC)OCCCCCCN(C)CCN(C)CCN(C)CCCCCCOC(CCCCCCC)O[Si](C)(C)O[Si](C)(C)OCCCCCCCC (stereo not shown) [Example 83, N^1-(11-heptyl-3,13,13,15,15-pentamethyl-10,12,14,16-tetraoxa-3-aza-13,15-disilatetracosyl)-N^1,N^2-dimethyl-N^2-(6-((1-((1,1,3,3-tetramethyl-3-(octyloxy)disiloxaneyl)oxy)octyl)oxy)hexyl)ethane-1,2-diamine] | 100.51% | 98.95% | 100.30% | 101.93% | 83.41% | 41.91% | 2.25% | −1.25% | 176 µM
